Among the data in ChEMBL document CHEMBL1140437, “N-substituted cis-4a-(3-hydroxyphenyl)-8a-methyloctahydroisoquinolines are opioid receptor pure antagonists” (J Med Chem, 2005) are Ratio Ke and Ke values, retold here.

Each structure is given as a SMILES string.

In assay [1] the target is Opioid receptors; mu & kappa (Homo sapiens) (UniProt P41145+P35372). Nature of the assay: Selectivity for cloned human mu opioid receptor over kappa opioid receptor. The assay is classed as protein assay.
Assay [2] has as its target Opioid receptors; delta & kappa (Homo sapiens) (UniProt P41145+P41143). Nature of the assay: Selectivity for cloned human delta opioid receptor over kappa opioid receptor. The assay is classed as protein assay.
The target in assay [3] is Mu-type opioid receptor (Homo sapiens) (UniProt P35372).
Description: Inhibition of DAMGO stimulated [35S]GTP-gamma-S binding to cloned human mu opioid receptor
For assay [4], the target named is Delta-type opioid receptor (Homo sapiens) (UniProt P41143).
Description: Inhibition of DPDPE stimulated [35S]GTP-gamma-S binding to cloned human delta opioid receptor
Assay [5] addresses Kappa-type opioid receptor (Homo sapiens) (UniProt P41145).
Description: Inhibition of U69,593 stimulated [35S]GTP-gamma-S binding to cloned human kappa opioid receptor

Sequence of Kappa-type opioid receptor (Homo sapiens) (P41145 whole entry): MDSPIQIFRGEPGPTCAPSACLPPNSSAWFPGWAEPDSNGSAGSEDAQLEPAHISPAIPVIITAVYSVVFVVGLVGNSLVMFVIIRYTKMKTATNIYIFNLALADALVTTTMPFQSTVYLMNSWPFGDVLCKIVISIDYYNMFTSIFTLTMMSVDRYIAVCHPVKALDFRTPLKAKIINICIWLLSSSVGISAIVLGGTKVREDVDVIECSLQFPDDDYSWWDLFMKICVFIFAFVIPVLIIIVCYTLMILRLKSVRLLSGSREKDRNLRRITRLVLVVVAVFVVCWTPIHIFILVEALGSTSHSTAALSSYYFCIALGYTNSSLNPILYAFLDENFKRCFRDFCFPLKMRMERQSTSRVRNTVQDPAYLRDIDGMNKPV
Sequence of Delta-type opioid receptor (Homo sapiens) (P41143 whole entry): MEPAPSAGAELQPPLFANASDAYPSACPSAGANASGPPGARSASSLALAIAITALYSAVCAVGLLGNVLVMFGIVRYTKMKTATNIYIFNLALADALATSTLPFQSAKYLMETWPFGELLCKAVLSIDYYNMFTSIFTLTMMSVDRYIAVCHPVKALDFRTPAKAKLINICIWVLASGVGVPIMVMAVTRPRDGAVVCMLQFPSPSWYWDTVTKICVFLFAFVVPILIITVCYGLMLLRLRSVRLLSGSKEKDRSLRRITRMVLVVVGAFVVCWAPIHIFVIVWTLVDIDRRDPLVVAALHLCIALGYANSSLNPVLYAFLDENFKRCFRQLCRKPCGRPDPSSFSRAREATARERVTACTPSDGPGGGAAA
Sequence of Opioid receptors; delta & kappa (Homo sapiens) (P41143 whole entry, looked up): as the sequence (P41143 whole entry) above
Sequence of Opioid receptors; delta & kappa (Homo sapiens) (P41145 whole entry, looked up): as the sequence (P41145 whole entry) above
Sequence of Mu-type opioid receptor (Homo sapiens) (P35372 whole entry): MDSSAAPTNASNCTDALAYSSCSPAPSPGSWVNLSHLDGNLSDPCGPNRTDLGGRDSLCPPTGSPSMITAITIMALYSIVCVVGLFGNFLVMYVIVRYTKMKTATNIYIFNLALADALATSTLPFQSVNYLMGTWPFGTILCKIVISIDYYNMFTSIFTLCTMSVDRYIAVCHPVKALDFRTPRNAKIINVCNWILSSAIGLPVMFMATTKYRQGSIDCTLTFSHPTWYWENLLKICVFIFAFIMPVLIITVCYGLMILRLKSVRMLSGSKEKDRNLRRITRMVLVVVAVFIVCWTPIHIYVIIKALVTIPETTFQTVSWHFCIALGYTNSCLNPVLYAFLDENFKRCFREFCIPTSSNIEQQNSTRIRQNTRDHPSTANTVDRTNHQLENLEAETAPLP
Sequence of Opioid receptors; mu & kappa (Homo sapiens) (P35372 whole entry, looked up): as the sequence (P35372 whole entry) above
Sequence of Opioid receptors; mu & kappa (Homo sapiens) (P41145 whole entry, looked up): as the sequence (P41145 whole entry) above

As for `CN1CC[C@]2(c3cccc(O)c3)CCCC[C@]2(C)C1`, the Ratio Ke came to 29 in assay [1] and 141 in assay [2]. The Ke in assay [3] amounted to 99.4 nM; in assay [4], 477 nM; in assay [5] it was 3.37 nM.

`C[C@]12CC[C@@H](NC(=O)CCN3CCCCC3)C[C@@]1(c1cccc(O)c1)CCN(CCCc1ccccc1)C2` (relative stereo): the results for the Ratio Ke in assay [1] and in assay [2] were 154 and 46, respectively. Further, the Ke came out at 41.7 nM in assay [3], 12.3 nM in assay [4] and 0.27 nM in assay [5].

`C[C@]12CC[C@@H](NC(=O)C3(c4ccccc4)CCCC3)C[C@@]1(c1cccc(O)c1)CCN(CCCc1ccccc1)C2`: the Ratio Ke came out at 0.8 in assay [1] and 3 in assay [2]. Besides, the Ke in assay [3] amounted to 1.46 nM; in assay [4], 6.46 nM; in assay [5], 1.93 nM.

With `C[C@]12CC[C@@H](NC(=O)CCN3CCc4ccccc4C3)C[C@@]1(c1cccc(O)c1)CCN(CCCc1ccccc1)C2` (relative stereo), the Ratio Ke was found to be 45 in assay [1] and 21 in assay [2]. Besides, the values for the Ke in assay [3], in assay [4] and in assay [5] were 9.82 nM, 4.56 nM and 0.22 nM, respectively.

As for `C[C@]12CC[C@@H](NC(=O)c3cc4ccccc4s3)C[C@@]1(c1cccc(O)c1)CCN(CCCc1ccccc1)C2` (relative stereo), the Ratio Ke is 25 in assay [1] and 2 in assay [2]. Moreover, the Ke in assay [3] turned out to be 11.3 nM; in assay [4], 1.01 nM; in assay [5], 0.46 nM.

Take `Oc1ccc2c3c1O[C@H]1c4[nH]c5c(c4C[C@@]4(O)[C@@H](C2)N(CC2CC2)CC[C@]314)C[C@@]1(O)[C@H]2Cc3ccc(O)c4c3[C@@]1(CCN2CC1CC1)[C@H]5O4`: the Ratio Ke in assay [1] turned out to be 475; in assay [2], 110.

`C[C@]12CCCC[C@@]1(c1cccc(O)c1)CCN(CCCc1ccccc1)C2` (relative stereo): the Ratio Ke in assay [1] is 0.8; in assay [2] it was 12. For the same molecule, the figures for the Ke in assay [3], in assay [4] and in assay [5] were 0.8 nM, 12.4 nM and 1.03 nM, respectively.

On to `C[C@]12CCCC[C@@]1(c1cccc(O)c1)CCN(CCc1ccccc1)C2` (relative stereo), for which the Ratio Ke in assay [1] stood at 0.3; in assay [2], 7. In addition, the Ke amounted to 0.84 nM in assay [3], 18.9 nM in assay [4] and 2.84 nM in assay [5].

On to `C[C@H]1CN(CC[C@H](O)C2CCCCC2)CC[C@@]1(C)c1cccc(O)c1`, for which the Ke in assay [3] was determined as 0.1 nM; in assay [4], 0.6 nM.
